Assays:
Experiment in all cases: KINOMEscan
Format in all cases: binding
Settings in all cases: 1 μM
[1] = molecular target: T1, ABL1(E255K)-phosphorylated (Homo sapiens, UniProt P00519, E255K)
T1 construct: purchased Eurofins DiscoverX Corporation

ACVR2B = ACVR2B (Homo sapiens, UniProt Q13705)
AMPK-alpha1 = AMPK-alpha1 (Homo sapiens, UniProt Q13131)
AXL = AXL (Homo sapiens, UniProt P30530)
BIKE = BIKE (Homo sapiens, UniProt Q9NSY1)
BMPR1A = BMPR1A (Homo sapiens, UniProt P36894)
BRSK1 = molecular target: T2, BRSK1 (Homo sapiens, UniProt Q8TDC3)
T2 construct: purchased Eurofins DiscoverX Corporation (KINOMEscan)

CDK3 = CDK3 (Homo sapiens, UniProt Q00526)
EGFR = EGFR (Homo sapiens, UniProt P00533)
EGFR(L858R) = EGFR(L858R) (Homo sapiens, UniProt P00533, L858R)
EPHA3 = EPHA3 (Homo sapiens, UniProt P29320)
ERBB4 = ERBB4 (Homo sapiens, UniProt Q15303)
ERK5 = ERK5 (Homo sapiens, UniProt Q13164)
FLT3 = FLT3 (Homo sapiens, UniProt P36888)
GRK4 = molecular target: T3, GRK4 (Homo sapiens, UniProt P32298)
T3 construct: purchased Eurofins DiscoverX Corporation

HIPK2 = molecular target: T4, HIPK2 (Homo sapiens, UniProt Q9H2X6)
T4 construct: purchased Eurofins DiscoverX Corporation

INSR = molecular target: T5, INSR (Homo sapiens, UniProt P06213)
T5 construct: purchased Eurofins DiscoverX (KINOMEscan)

IRAK3 = molecular target: T6, IRAK3 (Homo sapiens, UniProt Q9Y616)
T6 construct: purchased Eurofins DiscoverX (KINOMEscan)

[2] = molecular target: T7, JAK1(JH1domain-catalytic) (Homo sapiens, UniProt P23458)
T7 construct: JAK1(JH1domain-catalytic); purchased Eurofins DiscoverX (KINOMEscan)

JNK1 = molecular target: T8, JNK1 (Homo sapiens, UniProt P45983)
T8 construct: purchased Eurofins DiscoverX (KINOMEscan)

LTK = molecular target: T9, LTK (Homo sapiens, UniProt P29376)
T9 construct: purchased Eurofins DiscoverX Corporation

MAP3K1 = molecular target: T10, MAP3K1 (Homo sapiens, UniProt Q13233)
T10 construct: purchased Eurofins DiscoverX Corporation

MAP3K3 = molecular target: T11, MAP3K3 (Homo sapiens, UniProt Q99759)
T11 construct: purchased Eurofins DiscoverX Corporation

MAST1 = molecular target: T12, MAST1 (Homo sapiens, UniProt Q9Y2H9)
T12 construct: purchased Eurofins DiscoverX Corporation

MEK1 = molecular target: T13, MEK1 (Homo sapiens, UniProt Q02750)
T13 construct: purchased Eurofins DiscoverX Corporation

MEK5 = molecular target: T14, MEK5 (Homo sapiens, UniProt Q13163)
T14 construct: purchased Eurofins DiscoverX Corporation

MST4 = molecular target: T15, MST4 (Homo sapiens, UniProt Q9P289)
T15 construct: purchased Eurofins DiscoverX Corporation

MYO3B = molecular target: T16, MYO3B (Homo sapiens, UniProt Q8WXR4)
T16 construct: purchased Eurofins DiscoverX Corporation

NEK5 = molecular target: T17, NEK5 (Homo sapiens, UniProt Q6P3R8)
T17 construct: purchased Eurofins DiscoverX Corporation

PAK2 = PAK2 (Homo sapiens, UniProt Q13177)
PIK3C2B = PIK3C2B (Homo sapiens, UniProt O00750)
PIK3CD = PIK3CD (Homo sapiens, UniProt O00329)
PIK4CB = PIK4CB (Homo sapiens, UniProt Q9UBF8)
PIM1 = PIM1 (Homo sapiens, UniProt P11309)
PLK4 = PLK4 (Homo sapiens, UniProt O00444)
RIOK1 = RIOK1 (Homo sapiens, UniProt Q9BRS2)
[3] = molecular target: RPS6KA5(Kin.Dom.1-N-terminal) (Homo sapiens, UniProt O75582)
TXK = TXK (Homo sapiens, UniProt P42681)
[4] = molecular target: TYK2(JH1domain-catalytic) (Homo sapiens, UniProt P29597)
TYRO3 = TYRO3 (Homo sapiens, UniProt Q06418)
ULK3 = ULK3 (Homo sapiens, UniProt Q6PHR2)
VRK2 = VRK2 (Homo sapiens, UniProt Q86Y07)
YANK3 = YANK3 (Homo sapiens, UniProt Q86UX6)

T10 sequence (Q13233 whole entry): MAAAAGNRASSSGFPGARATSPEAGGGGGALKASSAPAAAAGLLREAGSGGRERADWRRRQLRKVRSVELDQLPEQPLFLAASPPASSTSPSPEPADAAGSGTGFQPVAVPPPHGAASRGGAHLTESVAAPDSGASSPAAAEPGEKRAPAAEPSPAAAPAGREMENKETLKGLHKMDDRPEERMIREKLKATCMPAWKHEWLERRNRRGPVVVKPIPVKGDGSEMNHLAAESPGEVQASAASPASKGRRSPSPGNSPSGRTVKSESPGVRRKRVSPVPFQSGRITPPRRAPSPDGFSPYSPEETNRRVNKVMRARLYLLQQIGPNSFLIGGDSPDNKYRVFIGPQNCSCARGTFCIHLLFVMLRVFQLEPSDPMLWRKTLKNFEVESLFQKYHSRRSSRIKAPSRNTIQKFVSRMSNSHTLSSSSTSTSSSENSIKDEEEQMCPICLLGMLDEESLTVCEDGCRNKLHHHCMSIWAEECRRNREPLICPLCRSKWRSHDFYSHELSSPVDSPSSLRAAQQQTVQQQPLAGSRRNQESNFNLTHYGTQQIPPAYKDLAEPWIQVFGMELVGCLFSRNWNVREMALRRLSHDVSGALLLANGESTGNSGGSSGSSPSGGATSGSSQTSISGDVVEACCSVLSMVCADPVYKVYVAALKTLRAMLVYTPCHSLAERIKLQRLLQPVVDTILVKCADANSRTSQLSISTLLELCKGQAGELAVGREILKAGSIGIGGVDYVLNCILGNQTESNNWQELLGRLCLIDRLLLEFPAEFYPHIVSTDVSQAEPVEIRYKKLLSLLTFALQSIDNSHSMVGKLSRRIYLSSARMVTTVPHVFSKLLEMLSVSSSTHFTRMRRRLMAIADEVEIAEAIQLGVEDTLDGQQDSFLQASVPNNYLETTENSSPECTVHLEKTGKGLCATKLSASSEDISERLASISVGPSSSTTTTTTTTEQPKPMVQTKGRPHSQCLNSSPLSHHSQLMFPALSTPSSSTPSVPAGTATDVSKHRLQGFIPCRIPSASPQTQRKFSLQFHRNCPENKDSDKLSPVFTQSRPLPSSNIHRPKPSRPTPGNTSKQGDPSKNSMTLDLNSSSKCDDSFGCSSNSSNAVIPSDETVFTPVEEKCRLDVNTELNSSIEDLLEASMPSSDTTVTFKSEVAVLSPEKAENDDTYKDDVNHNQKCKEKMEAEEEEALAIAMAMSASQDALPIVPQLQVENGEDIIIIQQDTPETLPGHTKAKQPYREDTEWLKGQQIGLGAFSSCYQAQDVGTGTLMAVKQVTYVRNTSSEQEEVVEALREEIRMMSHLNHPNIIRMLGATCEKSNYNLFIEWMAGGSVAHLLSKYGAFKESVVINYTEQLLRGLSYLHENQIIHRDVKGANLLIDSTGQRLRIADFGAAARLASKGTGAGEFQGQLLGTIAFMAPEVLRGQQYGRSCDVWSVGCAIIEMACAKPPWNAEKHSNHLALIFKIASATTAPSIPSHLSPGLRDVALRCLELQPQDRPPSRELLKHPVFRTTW
T5 sequence (P06213 28-1382): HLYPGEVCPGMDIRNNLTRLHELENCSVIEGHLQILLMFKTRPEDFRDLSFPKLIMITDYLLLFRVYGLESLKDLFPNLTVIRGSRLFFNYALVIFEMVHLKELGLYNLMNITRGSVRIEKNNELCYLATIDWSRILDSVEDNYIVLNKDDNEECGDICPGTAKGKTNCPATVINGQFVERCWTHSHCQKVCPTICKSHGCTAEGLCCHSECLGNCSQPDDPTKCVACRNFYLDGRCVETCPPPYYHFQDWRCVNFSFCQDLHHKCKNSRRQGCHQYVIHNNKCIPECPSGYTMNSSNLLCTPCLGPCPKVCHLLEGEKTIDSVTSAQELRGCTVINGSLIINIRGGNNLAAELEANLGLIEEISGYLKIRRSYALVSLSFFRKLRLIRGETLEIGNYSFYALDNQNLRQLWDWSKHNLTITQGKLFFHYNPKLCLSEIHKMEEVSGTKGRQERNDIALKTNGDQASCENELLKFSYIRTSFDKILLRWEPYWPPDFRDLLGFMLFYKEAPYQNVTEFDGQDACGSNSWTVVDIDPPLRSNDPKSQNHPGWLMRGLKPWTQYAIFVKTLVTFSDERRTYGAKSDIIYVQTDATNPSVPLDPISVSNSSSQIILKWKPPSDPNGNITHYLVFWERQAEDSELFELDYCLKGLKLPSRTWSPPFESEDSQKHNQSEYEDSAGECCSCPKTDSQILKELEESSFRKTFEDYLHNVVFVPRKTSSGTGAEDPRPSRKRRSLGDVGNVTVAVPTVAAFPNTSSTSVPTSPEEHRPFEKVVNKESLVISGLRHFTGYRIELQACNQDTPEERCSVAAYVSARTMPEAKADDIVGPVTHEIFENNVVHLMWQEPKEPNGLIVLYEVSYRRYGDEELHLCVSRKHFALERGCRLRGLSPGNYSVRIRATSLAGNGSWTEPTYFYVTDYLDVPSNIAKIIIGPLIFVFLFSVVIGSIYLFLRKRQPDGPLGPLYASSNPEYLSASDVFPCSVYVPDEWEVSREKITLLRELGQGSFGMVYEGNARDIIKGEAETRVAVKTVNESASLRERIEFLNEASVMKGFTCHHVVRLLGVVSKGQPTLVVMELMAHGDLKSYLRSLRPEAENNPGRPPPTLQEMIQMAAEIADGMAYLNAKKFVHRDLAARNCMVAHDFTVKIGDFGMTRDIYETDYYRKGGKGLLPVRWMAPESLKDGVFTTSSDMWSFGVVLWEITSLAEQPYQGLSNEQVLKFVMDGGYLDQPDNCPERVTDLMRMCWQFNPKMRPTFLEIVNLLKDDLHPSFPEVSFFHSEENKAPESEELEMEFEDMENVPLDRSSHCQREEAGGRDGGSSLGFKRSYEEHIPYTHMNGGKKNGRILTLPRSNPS
T14 sequence (Q13163 whole entry): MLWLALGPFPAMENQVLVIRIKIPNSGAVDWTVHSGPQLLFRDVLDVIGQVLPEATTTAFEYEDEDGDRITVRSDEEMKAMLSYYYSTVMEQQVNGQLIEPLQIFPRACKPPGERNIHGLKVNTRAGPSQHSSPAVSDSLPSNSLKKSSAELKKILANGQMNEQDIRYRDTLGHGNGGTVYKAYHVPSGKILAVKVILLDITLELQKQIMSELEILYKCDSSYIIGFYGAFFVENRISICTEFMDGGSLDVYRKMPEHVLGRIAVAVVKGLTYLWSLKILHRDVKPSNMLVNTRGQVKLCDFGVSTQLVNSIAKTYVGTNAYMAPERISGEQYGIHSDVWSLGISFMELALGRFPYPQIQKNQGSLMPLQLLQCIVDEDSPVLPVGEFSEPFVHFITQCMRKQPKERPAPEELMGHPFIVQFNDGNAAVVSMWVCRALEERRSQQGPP
PIK3CD, sequence (O00329 whole entry): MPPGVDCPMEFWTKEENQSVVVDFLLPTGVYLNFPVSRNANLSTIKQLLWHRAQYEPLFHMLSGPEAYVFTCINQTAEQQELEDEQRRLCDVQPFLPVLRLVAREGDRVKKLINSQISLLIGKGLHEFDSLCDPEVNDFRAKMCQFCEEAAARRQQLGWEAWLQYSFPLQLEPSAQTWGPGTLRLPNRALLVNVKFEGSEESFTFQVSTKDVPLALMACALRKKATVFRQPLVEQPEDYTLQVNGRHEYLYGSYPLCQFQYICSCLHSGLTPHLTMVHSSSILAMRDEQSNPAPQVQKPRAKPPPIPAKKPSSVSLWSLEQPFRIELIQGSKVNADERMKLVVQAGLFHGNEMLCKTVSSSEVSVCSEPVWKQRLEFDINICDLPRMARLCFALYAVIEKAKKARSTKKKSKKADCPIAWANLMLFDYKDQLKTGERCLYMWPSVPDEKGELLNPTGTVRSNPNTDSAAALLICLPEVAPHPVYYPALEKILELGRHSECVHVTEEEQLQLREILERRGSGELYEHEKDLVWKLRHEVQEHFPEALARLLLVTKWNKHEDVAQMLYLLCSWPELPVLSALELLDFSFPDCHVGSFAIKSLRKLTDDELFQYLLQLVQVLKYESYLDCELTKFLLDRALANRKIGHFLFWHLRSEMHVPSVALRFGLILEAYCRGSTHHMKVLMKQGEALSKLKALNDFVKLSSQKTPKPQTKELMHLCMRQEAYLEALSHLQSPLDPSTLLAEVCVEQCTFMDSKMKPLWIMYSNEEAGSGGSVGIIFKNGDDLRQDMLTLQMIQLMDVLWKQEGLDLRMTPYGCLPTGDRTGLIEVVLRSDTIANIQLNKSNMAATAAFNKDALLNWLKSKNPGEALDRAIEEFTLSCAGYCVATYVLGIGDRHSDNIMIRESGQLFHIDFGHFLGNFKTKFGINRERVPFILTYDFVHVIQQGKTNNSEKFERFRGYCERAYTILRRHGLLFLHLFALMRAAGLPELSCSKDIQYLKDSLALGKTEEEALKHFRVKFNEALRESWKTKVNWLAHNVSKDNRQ
CDK3, sequence (Q00526 whole entry): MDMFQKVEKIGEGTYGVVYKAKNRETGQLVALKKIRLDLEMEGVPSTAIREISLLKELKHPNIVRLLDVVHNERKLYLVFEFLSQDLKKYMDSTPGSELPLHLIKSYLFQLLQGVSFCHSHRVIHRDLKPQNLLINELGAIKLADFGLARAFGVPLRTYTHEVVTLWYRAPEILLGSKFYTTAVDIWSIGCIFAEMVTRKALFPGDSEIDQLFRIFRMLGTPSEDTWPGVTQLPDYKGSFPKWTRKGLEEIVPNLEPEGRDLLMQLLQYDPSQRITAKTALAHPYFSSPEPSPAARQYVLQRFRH
RPS6KA5(Kin.Dom.1-N-terminal), sequence (O75582 49-318 limits assumed): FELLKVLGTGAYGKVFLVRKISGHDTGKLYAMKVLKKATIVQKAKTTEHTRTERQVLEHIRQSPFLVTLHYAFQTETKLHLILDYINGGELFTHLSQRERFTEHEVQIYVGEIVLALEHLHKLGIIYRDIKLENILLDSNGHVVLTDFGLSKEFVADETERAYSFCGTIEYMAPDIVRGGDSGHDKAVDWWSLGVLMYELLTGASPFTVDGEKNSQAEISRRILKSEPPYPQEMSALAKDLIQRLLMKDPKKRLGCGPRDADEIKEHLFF

Question: What does the source list for `C=CC(=O)Nc1ccc(OC)c(Nc2cc(-c3[nH]c(CC)nc3-c3cccc(NC(=O)c4cccc5c4NC(=O)c4ccccc4N5)c3)ccn2)c1` [Compound 4]?
Answer: POC [1]: 65% of control; POC (ACVR2B): 72% of control; POC (AMPK-alpha1): 81% of control; POC (AXL): 98% of control; POC (BIKE): 100% of control; POC (BMPR1A): 85% of control; POC (BRSK1): 100% of control; POC (CDK3): 100% of control; POC (EGFR): 17% of control; POC (EGFR(L858R)): 5% of control; POC (EPHA3): 81% of control; POC (ERBB4): 4.9% of control; POC (ERK5): 100% of control; POC (FLT3): 100% of control; POC (GRK4): 100% of control; POC (HIPK2): 100% of control; POC (INSR): 97% of control; POC (IRAK3): 39% of control; POC [2]: 91% of control; POC (JNK1): 85% of control; POC (LTK): 48% of control; POC (MAP3K1): 100% of control; POC (MAP3K3): 51% of control; POC (MAST1): 100% of control; POC (MEK1): 100% of control; POC (MEK5): 41% of control; POC (MST4): 94% of control; POC (MYO3B): 31% of control; POC (NEK5): 100% of control; POC (PAK2): 100% of control; POC (PIK3C2B): 74% of control; POC (PIK3CD): 71% of control; POC (PIK4CB): 93% of control; POC (PIM1): 94% of control; POC (PLK4): 71% of control; POC (RIOK1): 100% of control; POC [3]: 83% of control; POC (TXK): 42% of control; POC [4]: 91% of control; POC (TYRO3): 32% of control; POC (ULK3): 100% of control; POC (VRK2): 100% of control; POC (YANK3): 96% of control
